Results taken from US7388111B2, “Non-nucleoside reverse transcriptase inhibitors” (Roche Palo Alto LLC, priority 2005, dated 2008).

What follows are compounds tested against HIV-1 RT (Human immunodeficiency virus type 1 group M subtype B, UniProt P03366) (assay: HIV Reverse Transcriptase Assay: Inhibitor IC50 Determination). Conditions: purified recombinant enzyme, poly(rA)/oligo(dT)16 template-primer, 37° C. 30 min.
Format: biochemical
Procedure: HIV Reverse Transcriptase Assay: Inhibitor IC50 Determination
HIV-1 RT assay was carried out in 96-well Millipore MultiScreen MADVNOB50 plates using purified recombinant enzyme and a poly(rA)/oligo(dT)16 template-primer in a total volume of 50 μL. The assay constituents were 50 mM Tris/HCl, 50 mM NaCl, 1 mM EDTA, 6 mM MgCl2, 5 μM dTTP, 0.15 μCi [^3H] dTTP, 5 μg/ml poly (rA) pre annealed to 2.5 μg/ml oligo (dT)16 and a range of inhibitor concentrations in a final concentration of 10% DMSO. Reactions were initiated by adding 4 nM HIV-1 RT and after incubation at 37° C. for 30 min, they were stopped by the addition of 50 μl ice cold 20% TCA and allowed to precipitate at 4° C. for 30 min. The precipitates were collected by applying vacuum to the plate and sequentially washing with 3×200 μl of 10% TCA and 2×200 μl 70% ethanol. Finally, the plates were dried and radioactivity counted in a Packard TopCounter after the addition of 25 μl scintillation fluid per well. IC50's were calculated by plotting % inhibition versus log10 inhibitor concentrations.

SMILES	IC50 [nM]
Cc1cc(OCCCS(N)(=O)=O)ccc1NC(=O)Cc1ccc(Oc2cc(Cl)ccc2Br)c(Cl)c1 [Compound I-5, 2-[4-(2-Bromo-5-chloro-phenoxy)-3-chloro-phenyl]-N-[2-methyl-4-(3-sulfamoyl-propoxy)-phenyl]-acetamide]	148
O=C(Cc1ccc(Oc2cc(Cl)ccc2Br)c(Cl)c1)Nc1ccccc1Cl [Compound I-6, 2-[4-(2-Bromo-5-chloro-phenoxy)-3-chloro-phenyl]-N-(2-chloro-phenyl)-acetamide]	170
Cc1ccccc1NC(=O)Cc1ccc(Oc2cc(Cl)ccc2Br)c(Cl)c1 [Compound I-7, 2-[4-(2-Bromo-5-chloro-phenoxy)-3-chloro-phenyl]-N-o-tolyl-acetamide]	832
O=C(Cc1ccc(Oc2cc(Cl)ccc2Br)c(Cl)c1)Nc1ccccc1F [Compound I-8, 2-[4-(2-Bromo-5-chloro-phenoxy)-3-chloro-phenyl]-N-(2-fluoro-phenyl)-acetamide]	5810
Cc1c(CC(=O)Nc2ccc(S(N)(=O)=O)cc2Cl)ccc(Oc2cc(Cl)cc(C#N)c2)c1C [Compound I-18, 2-[4-(3-Chloro-5-cyano-phenoxy)-2,3-dimethyl-phenyl]-N-(2-chloro-4-sulfamoyl-phenyl)-acetamide]	111
N#Cc1cc(C#N)cc(Oc2ccc(CC(=O)Nc3ccccc3Br)cc2Cl)c1 [Compound I-20, N-(2-Bromo-phenyl)-2-[3-chloro-4-(3,5-dicyano-phenoxy)-phenyl]-acetamide]	2380
N#Cc1cc(C#N)cc(Oc2ccc(CC(=O)Nc3ccc(S(N)(=O)=O)cc3Br)cc2Cl)c1 [Compound I-21, N-(2-Bromo-4-sulfamoyl-phenyl)-2-[3-chloro-4-(3,5-dicyano-phenoxy)-phenyl]-acetamide]	159
Cc1cc(S(N)(=O)=O)ccc1NC(=O)Cc1ccc(Oc2ccc(C#N)cc2C)c(C)c1C [Compound I-23, 2-[4-(4-Cyano-2-methyl-phenoxy)-2,3-dimethyl-phenyl]-N-(2-methyl-4-sulfamoyl-phenyl)-acetamide]	252
Cc1cc(C#N)ccc1Oc1ccc(CC(=O)Nc2ccc(S(N)(=O)=O)cc2Cl)c(C)c1C [Compound I-25, N-(2-Chloro-4-sulfamoyl-phenyl)-2-[4-(4-cyano-2-methyl-phenoxy)-2,3-dimethyl-phenyl]-acetamide]	157
Cc1c(CC(=O)Nc2ccc(S(N)(=O)=O)cc2Br)ccc(Oc2cc(Cl)cc(C#N)c2)c1C [Compound I-33, N-(2-Bromo-4-sulfamoyl-phenyl)-2-[4-(3-chloro-5-cyano-phenoxy)-2,3-dimethyl-phenyl]-acetamide]	84.3
Cc1cc(S(N)(=O)=O)ccc1NC(=O)Cc1ccc(Oc2cc(C#N)ccc2Cl)c(Cl)c1 [Compound I-35, 2-[3-Chloro-4-(2-chloro-5-cyano-phenoxy)-phenyl]-N-(2-methyl-4-sulfamoyl-phenyl)-acetamide]	395
N#Cc1ccc(Cl)c(Oc2ccc(CC(=O)Nc3ccc(S(N)(=O)=O)cc3Cl)cc2Cl)c1 [Compound I-36, 2-[3-Chloro-4-(2-chloro-5-cyano-phenoxy)-phenyl]-N-(2-chloro-4-sulfamoyl-phenyl)-acetamide]	104
Cc1cc(S(N)(=O)=O)ccc1NC(=O)Cc1ccc(Oc2cc(Cl)cc(C#N)c2)c(Cl)c1 [Compound I-38, 2-[3-Chloro-4-(3-chloro-5-cyano-phenoxy)-phenyl]-N-(2-methyl-4-sulfamoyl-phenyl)-acetamide]	806
N#Cc1cc(Cl)cc(Oc2ccc(CC(=O)Nc3ccc(S(N)(=O)=O)cc3Cl)cc2Cl)c1 [Compound I-39, 2-[3-Chloro-4-(3-chloro-5-cyano-phenoxy)-phenyl]-N-(2-chloro-4-sulfamoyl-phenyl)-acetamide]	92.6
Cc1cc(S(N)(=O)=O)ccc1NC(=O)Cc1ccc(Oc2c(Cl)cccc2Cl)c(Cl)c1 [Compound I-41, 2-[3-Chloro-4-(2,6-dichloro-phenoxy)-phenyl]-N-(2-methyl-4-sulfamoyl-phenyl)-acetamide]	162
